Laboratory results taken from US11980602B2, “Cannabinoid prodrug compounds” (Firstlight Pharmaceuticals LLC, priority 2019, dated 2024).

Experiments:
[1] = low, dose dependent; cited from earlier work
[2] = tested on: NCIH727 (lung) tumor cells; experiment: CELLTITER-GLO cell viability assay, H727; type: cell-based, human
Procedure: (§1) CELLTITER-GLO® Cell Viability Assay (a homogeneous method of determining the number of viable cells in culture based on quantitation of the ATP present, an indicator of metabolically active cells)
(§2) MKN1 (gastric), PC3 (prostate), NCIH727 (lung), and HCT116 (colorectal) tumor cell lines; Control=0.1% DMSO
(§3) To prepare 10 mM FL41 stock from powder dissolve 4.1 mg of FL41 powder into 0.74 ml DMSO-aliquot and store at −20 C until use DMSO-stock from Sigma or other suitable vendor-must be reagent or ACS grade or better.
(§4) Place 5000 cells per well (200 ul) in duplicate in their preferred media as shown in 96-well plate diagram immediately below. Reduce the final FBS (serum) concentration to 5% before adding cells to media. Incubate cells overnight and then remove old media carefully and add fresh media with 5% FBS and then either add DMSO alone, COMPOUND A alone or in combination with GEM (gemcitabine) in wells where noted at the final concentrations noted. Incubate the cells at 37 C in CO2 incubator for an additional 72 hours in presence of compounds. At the end of the 72-hour period add Promega Titerglo reagent to the wells and then measure luminescence to assess relative cell number.

[3] = tested on: HCT116 (colorectal) tumor cells; experiment: CELLTITER-GLO cell viability assay, HCT116; type: cell-based, human; conditions: COMPOUND A alone, 72 hours, 5% FBS (FIG. 6)
Procedure: as §1, §2, §3, §4

[4] = tested on: MKN1 (gastric) tumor cells; experiment: CELLTITER-GLO cell viability assay, MKN1; type: cell-based, human
Procedure: as §1, §2, §3, §4

[5] = tested on: phospho-ERK; experiment: Western blot of ERK phosphorylation in HPAF-11 pancreatic tumor cells; type: cell-based, human; conditions: HPAF-11 cells, 48 hours, DMEM 10% FBS, western blot (FIG. 3)
Procedure: Cells were treated for 48 hours with indicated concentrations of COMPOUND A in DMEM containing 10% FBS. Phosphorylation of ERK was assessed by western blot using antibodies that detect total and phospho-ERK. Actin detection was used as a loading control for total lysate protein.

[6] = tested on: HPAF-II (pancreatic) tumor cells; experiment: MTT cell viability assay with HPAF-II pancreatic tumor cells; type: cell-based, human
Procedure: MTT Cell Viability Assay with HPAF-II (Pancreatic) Tumor Cells—
10 mM of COMPOUND A stock solution was made by dissolving the 8.2 mg of powder form of COMPOUND A in 1.468 mL of DMSO to form the stock solution. The stock solution was aliquoted to 0.6 mL microcentrifuge tubes with 20 μl of solution in each microcentrifuge tube.
Pancreatic cancer cell line HPAF-II was seeded in a 96-well plate with 5000 cells/well and incubated overnight at 37° C. The next day, cells were treated triplicate by removing cell media and replaced with fresh media containing COMPOUND A alone at increasing concentrations (10 μM, 20 μM, 20 μM, 50 μM, 75 μM, 100 μM 125 μM 150 μM, 175 μM 200 μM) as well as the combination of the 10 μM of COMPOUND A and Gemcitabine at increasing concentrations (0 μM, 0.01 μM, 0.05 μM, 0.1 μM, 0.5 μM, 1 μM, 5 μM, 10 μM). Drug vehicle (DMSO, Sigma) was used as a control for the treatment. Cells were then left to grow in the presence of the drugs for the following 72 hours.
After 72 hours, the media was discarded and the cells were incubated with MTT (3-(4,5-Dimethylthiazol-2-yl)-2,5-diphenyltetrazolim bromide) solution (5 mg/ml stock) at working concentration of 0.5 mg/ml in fresh cell growth media for 2 hours at 37° C. The reaction was stopped when the majority of the cells was stained. MTT solution was then aspirated and the plate was left to dry for several hour. Stained cells were then resuspended in 70 μl of DMSO and mixed well. The absorbance was read with the use of a plate reading spectrophotometer at the 570 nm. The CompuSyn data for the drug combination of COMPOUND A and Gemcitabine in each cell line was generated and analysed using the CompuSyn software which was set up by […] and published by ComboSyn, Inc.

[7] = tested on: PC3 (prostate) tumor cells; experiment: CELLTITER-GLO cell viability assay, PC3; type: cell-based, human; conditions: COMPOUND A alone, 72 hours, 5% FBS
Procedure: as §1, §2, §3, §4

Structure (SMILES)	oral and oromucosal bioavailability [1]	growth of H727 (lung) tumor cell line as compared to control ([2]; COMPOUND A alone, 72 hours, 5% FBS (FIG. 7))	effect on gemcitabine growth inhibition of human h727 lung tumor cells ([2]; combination with gemcitabine, 72 hours (FIG. 8))	growth of HCT116 (colorectal) tumor cell line as compared to control [3]	growth of MKN1 (gastric) tumor cell line as compared to control ([4]; COMPOUND A alone, 72 hours, 5% FBS (FIG. 4))	effect on gemcitabine growth inhibition of human mkn1 gastric tumor cells ([4]; combination with gemcitabine, 72 hours (FIG. 5))	phospho-ERK levels in tumor cells as compared to control [5]	growth of HPAFII (pancreatic) tumor cell line as compared to control ([6]; COMPOUND A alone)	increase in rate of the cell kill vs Compound A or gemcitabine alone ([6]; HPAF-II, 10 μM COMPOUND A combined with gemcitabine, 72 hours (FIG. 2))	kill of the pancreatic tumor cells ([6]; HPAF-II, 50 μM, 72 hours, MTT (FIG. 1)) [%]	kill of the tumor cells ([6]; HPAF-II, about 175 μM, 72 hours, MTT (FIG. 1))	growth of PC3 (prostate) tumor cell line as compared to control [7]
C=C(C)[C@@H]1CCC(C)=C[C@H]1c1c(O)cc(CCCCC)cc1O [CBD, Cannabidiol]	about 35%											
C=C(C)[C@@H]1CCC(C)=C[C@H]1c1c(O)cc(CCCCC)cc1OC(=O)N[C@@H](C)C(=O)N[C@@H](CCC(=O)O)C(=O)O [COMPOUND A]		inhibit the growth	potentiates	inhibit the growth	inhibit the growth	synergistic impact	effectively decrease phospho-ERK levels	inhibit the growth	at least 10%	≥ 50	more than 80%	inhibit the growth
